Test results: patent US20250099475A1, “METHODS OF TREATING HYPERTENSION BY PERIODIC SUPPRESSION OF ALDOSTERONE SYNTHASE” (Mineralys Therapeutics, Inc., priority 2022, published 2025)
Like-named read-outs stand apart in the source and are kept apart here.

Assay: Phase 1 part 1 single ascending dose: pharmacokinetics
Type: in vivo, human
Settings: for half-life / Tmax: male, human, plasma, oral
Experimental: A 4-part, Phase 1 randomized, double-blind, placebo-controlled, first-in-human study was performed to determine the safety, tolerability, PK, and PD of single ascending doses (SADs; part 1) and multiple ascending doses (MADs; part 2) of Compound A HBr in healthy participants. The study also assessed whether there were sex (part 3) and age-related (part 4) effects on the PK of a single dose of Compound A HBr. The study was approved by the local independent ethics committee; the BEBO foundation in Assen, Netherlands; and the Central Committee on Research Involving Human Subjects in The Hague, Netherlands; and conducted according to the provisions of the Declaration of Helsinki. Written informed consent was obtained from each study participant before conducting any protocol-related procedures.
In part 1, Compound A HBr or placebo was administered to 64 healthy Caucasian men aged 18 to 55 years (inclusive) in 8 cohorts of 8 participants each. In each cohort, 6 participants were randomized to receive a single dose of Compound A HBr and 2 participants were randomized to receive matching placebo. All cohorts included 2 sentinel participants of whom 1 received Compound A HBr and 1 received matching placebo. The remaining 6 participants, of whom 5 received Compound A HBr and 1 received placebo, were dosed ≥24 hours following the sentinel participants. The dosing cohorts were 5, 10, 20, 50, 100, 200, 400, and 800 mg. Doses were administered in an ascending order per cohort, with a minimum 10-day interval between consecutive dose levels. Participants received a single dose of Compound A HBr or placebo in the fasted state.
Plasma PK parameters were derived by non-compartmental analysis using WinNonlin® (version 6.3). Dose proportionality was assessed using the power model with AUC0-∞, AUC0-last, and Cmax for part 1 (SAD) and with AUC0-last, AUC0-∞, AUC0-τ, and Cmax for part 2 (MAD). A linear model (ln(Y)=α+β×ln(X), where Y is the pharmacokinetic parameter and X is the dose) was used to fit the power model, after log-transformation of the parameters. Dose proportionality was concluded if the 95% confidence interval (CI) for slope (β) included the value 1.
An analytical method for the determination of Compound A in human plasma (dipotassium ethylenediaminetetraacetic acid [K2-EDTA]) and human urine using solid-phase extraction and high-performance liquid chromatography with mass spectrometric detection was successfully validated over the concentration range 0.1000 ng/mL (lower limit of quantification) to 100.0 ng/mL prior to initiation of the clinical trial. […] For all other analytes, validated quantitative measurement methods were used.

**Q.** Which half-life (single 5 mg, fasted, read-out: T 1/2, mean (SD) (converted)) does the source give for `CC(=O)N[C@H]1CC[C@H](NC(=O)CN2CCN(c3nncc(-c4ccc(C)cc4)n3)CC2)CC1` [Compound A HBr] here?
**A.** The half-life was 8 h.

**Q.** And the half-life (single 10 mg, fasted, read-out: T 1/2, mean (SD) (converted))?
**A.** Its half-life is 8 h.

**Q.** And the Tmax (single 10 mg, fasted, read-out: Tmax, median and range)?
**A.** Its Tmax is 1.25 h.

**Q.** And the Tmax (single 200 mg, fasted, read-out: Tmax, median and range)?
**A.** The Tmax was 1.25 h.

**Q.** What about the Tmax (single 400 mg, fasted, read-out: Tmax, median and range) of the same compound?
**A.** Its Tmax is 1.25 h.

**Q.** And the half-life (single 800 mg, fasted, read-out: T 1/2, mean (SD) (converted))?
**A.** Its half-life is 11 h.

**Q.** What about the Tmax (single doses 5 to 800 mg, read-out: Median Tmax values) of the same compound?
**A.** The Tmax was 1 to 1.5 h.

**Q.** And the half-life (single doses 5 to 800 mg, read-out: mean t1/2 values)?
**A.** Its half-life is 7.92 to 10.5 h.

**Q.** And the “AUC0-inf, mean (SD)” value (single 5 mg, fasted)?
**A.** The value was 231 (25) ng × h/mL.

**Q.** What about the “Cmax, mean (SD)” value (single 5 mg, fasted) of the same compound?
**A.** Its value is 37 (7) ng/mL.

**Q.** And the “Tmax, median and range” value (single 5 mg, fasted)?
**A.** The value was 1.5 (1-3) h.

**Q.** And the “AUC0-inf, mean (SD)” value (single 10 mg, fasted)?
**A.** Its value is 451 (46) ng × h/mL.

**Q.** What about the “Cmax, mean (SD)” value (single 10 mg, fasted) of the same compound?
**A.** Its value is 76 (20) ng/mL.

**Q.** And the “AUC0-inf, mean (SD)” value (single 20 mg, fasted)?
**A.** Its value is 768 (182) ng × h/mL.

**Q.** What about the “Cmax, mean (SD)” value (single 20 mg, fasted) of the same compound?
**A.** Its value is 141 (76) ng/mL.

**Q.** And the “Tmax, median and range” value (single 20 mg, fasted)?
**A.** Its value is 1.5 (1-3) h.

**Q.** What about the “AUC0-inf, mean (SD)” value (single 50 mg, fasted) of the same compound?
**A.** The value was 2155 (258) ng × h/mL.

**Q.** What about the “Cmax, mean (SD)” value (single 50 mg, fasted) of the same compound?
**A.** Its value is 573 (206) ng/mL.

**Q.** What about the “T 1/2, mean (SD)” value (single 50 mg, fasted) of the same compound?
**A.** The value was 9 (2) h.

**Q.** And the “Tmax, median and range” value (single 50 mg, fasted)?
**A.** Its value is 1 (0.5-3) h.

**Q.** And the “AUC0-inf, mean (SD)” value (single 100 mg, fasted)?
**A.** Its value is 5366 (493) ng × h/mL.

**Q.** What about the “Cmax, mean (SD)” value (single 100 mg, fasted) of the same compound?
**A.** Its value is 1211 (248) ng/mL.

**Q.** What about the “Tmax, median and range” value (single 100 mg, fasted) of the same compound?
**A.** The value was 1.5 (1-3) h.

**Q.** What about the “AUC0-inf, mean (SD)” value (single 200 mg, fasted) of the same compound?
**A.** Its value is 10645 (3486) ng × h/mL.

**Q.** What about the “Cmax, mean (SD)” value (single 200 mg, fasted) of the same compound?
**A.** The value was 2848 (1015) ng/mL.

**Q.** And the “T 1/2, mean (SD)” value (single 200 mg, fasted)?
**A.** Its value is 10 (4) h.

**Q.** And the “AUC0-inf, mean (SD)” value (single 400 mg, fasted)?
**A.** Its value is 17257 (2907) ng × h/mL.

**Q.** What about the “Cmax, mean (SD)” value (single 400 mg, fasted) of the same compound?
**A.** The value was 4455 (862) ng/mL.

**Q.** What about the “AUC0-inf, mean (SD)” value (single 800 mg, fasted) of the same compound?
**A.** Its value is 29331 (3623) ng × h/mL.

**Q.** And the “Cmax, mean (SD)” value (single 800 mg, fasted)?
**A.** Its value is 7708 (1617) ng/mL.

**Q.** What about the “Tmax, median and range” value (single 800 mg, fasted) of the same compound?
**A.** Its value is 1.5 (0.5-4) h.

**Q.** What about the “dose proportionality of AUC0-last and AUC0-∞” value (single doses 5 to 800 mg) of the same compound?
**A.** The value was “dose-proportional increase”.
